Experimental data from patent publication US12194158B2, “Oromucosal nanofiber carriers for therapeutic treatment” (Instar Technologies A.S., priority 2016, dated 2025).
Structures can show the parent of a compound that is named as a salt. Each block holds one molecule with its values, some of them ahead of it.

Experiments:
[1] = In vitro transmucosal permeation of liraglutide through porcine sublingual mucosa (Franz diffusion cell); format: in vitro ADME; conditions: from nanofibre carrier
Experimental: The liraglutide containing nanofibre carrier samples or the reference solution samples were applied onto fresh porcine sublingual mucosa of thickness ca 0.4 mm fixed in a Franz diffusion cell. An exposed mucosal area for permeation was 1.0 cm^2, and the stirred acceptor phase was phosphate buffer pH 7.4 tempered at 37°±0.5° C. Both the tested solutions (Victoza pre-filled pen for subcutaneous injection, 6 mg/mL and the liraglutide solution in buffer pH 6.80, 0.4 mg/mL) were applied onto the sublingual membrane in 400 μL volume. Donor nanofibre samples contained 0.5 mg of liraglutide in the form of a multilayered nanofibre disc and were suffused in donor space with 400 μL of buffer pH 6.80 or 8.15, respectively.
Determination of liraglutide was performed on an Agilent 1200 instrument. The parameters were as follows: Column Poroshell 120 EC-C18 (4.6×150 mm, particle size: 5.0 μm) was thermostated at 35° C. Samples were kept at 10° C., injection 5.00 μL. Mobile Phase A: Na2HPO4 (pH 7.75):ACN (85:15) was mixed with Mobile Phase B: ACN in gradient and pumped at speed 1.200 mL/min. Detector wavelength: 215 nm. Resulting liraglutide retention time was ca 3.4 min.

[2] = after oral administration; cited from earlier work
[3] = acidic stomach pH; cited from earlier work

duration of further sublingual permeation in vitro [1]: about 1 hour
transmucosal permeation through the sublingual membrane ([1]; FIG. 5): able to permeate transmucosally
Compound: CCCCCCCCCCCCCCCC(=O)N[C@@H](CCC(=O)NCCCC[C@H](NC(=O)[C@H](C)NC(=O)[C@H](C)NC(=O)[C@H](CCC(N)=O)NC(=O)CNC(=O)[C@H](CCC(=O)O)NC(=O)[C@H](CC(C)C)NC(=O)[C@H](Cc1ccc(O)cc1)NC(=O)[C@H](CO)NC(=O)[C@H](CO)NC(=O)[C@@H](NC(=O)[C@H](CC(=O)O)NC(=O)[C@H](CO)NC(=O)[C@@H](NC(=O)[C@H](Cc1ccccc1)NC(=O)[C@@H](NC(=O)CNC(=O)[C@H](CCC(=O)O)NC(=O)[C@H](C)NC(=O)[C@@H](N)Cc1cnc[nH]1)[C@@H](C)O)[C@@H](C)O)C(C)C)C(=O)N[C@@H](CCC(=O)O)C(=O)N[C@@H](Cc1ccccc1)C(=O)N[C@H](C(=O)N[C@@H](C)C(=O)N[C@@H](Cc1c[nH]c2ccccc12)C(=O)N[C@@H](CC(C)C)C(=O)N[C@H](C(=O)N[C@@H](CCCNC(=N)N)C(=O)NCC(=O)N[C@@H](CCCNC(=N)N)C(=O)NCC(=O)O)C(C)C)[C@@H](C)CC)C(=O)O [Liraglutide]

Compound: CNS(=O)(=O)Cc1ccc2[nH]cc(CCN(C)C)c2c1 [sumatriptan]
oral bioavailability [2]: 15%

Compound: CCCCCCOC(=O)NC(=N)c1ccc(NCc2nc3cc(C(=O)N(CCC(=O)OCC)c4ccccn4)ccc3n2C)cc1 [DG, Dabigatran ethexylate mesylate]
solubility [3]: very good
